According to patent publication US9739733B2, “Methods for monitoring tight clot formation” (T2 Biosystems, Inc., priority 2012, dated 2017):

Legend:
platelets in whole blood [1] = assay: T2MR platelet-induced clot contraction with platelet agonist, uncoated polypropylene tube; assay type: cell-based, human
Description: Platelet-induced clot contraction was used for measuring platelet activity and inhibition using a formulation of reptilase (RF), factor XIIIa (FXIIIa), and platelet agonist such as arachidonic acid (AA) or adenosine diphosphate (ADP). The RF and FXIIIa induce the formation of a fibrin mesh rapidly without activating platelets. This occurs rapidly as compared to clot contraction. In developing a platelet activity assay for the agonist arachidonic acid (AA) we were able to see reproducible […] signatures that titrated with the concentration of AA as expected ([…] curves acquired from whole blood with 0.5 mM, 1.0 mM, and 1.5 mM AA). In a typical clot contraction signal there is an upper […] signal that increases rapidly between 5 and 10 minutes and the appearance of a lower […] signal around the same point in time. The upper signal corresponds to water excreted from the clot and the lower signal corresponds to water trapped in the contracted clot. The lowest level has the slowest kinetics. […] In developing a platelet activity assay for the agonist ADP we encountered a problem with reproducibility. For example, in triplicate measures (3 samples obtained in parallel from freshly drawn blood) the clot contraction signal might appear for only one sample and/or the triplicate measures might vary in the signal intensity of the clot contraction signal. Reproducible results were obtained from AA, but not ADP. This is believed to result from the fact that AA is a stronger platelet activator than ADP. This conclusion is supported by the following observations. […] Second, aging the blood could lead to stronger clot contraction signals, presumably due to basal thrombin activation that led to more platelet induced clot contraction. Third, adding low levels of thrombin could lead to more platelet induced clot contraction. Therefore, there is a difference in the strength of platelet activation for AA and ADP.

[2] = test system: platelets in blood samples; assay: T2MR ADP activation titration in Triton X-100 coated polypropylene tubes; assay type: cell-based, human; conditions: Triton X-100 coated tube
Description: Platelet-induced clot contraction was used for measuring platelet activity and inhibition using a formulation of reptilase (RF), factor XIIIa (FXIIIa), and platelet agonist such as arachidonic acid (AA) or adenosine diphosphate (ADP). The RF and FXIIIa induce the formation of a fibrin mesh rapidly without activating platelets. This occurs rapidly as compared to clot contraction. Briefly, blood samples were activated with varying levels of ADP in 0.2 mL polypropylene tubes coated with Triton X-100. […] Additionally, levels below […] are now able to show a clot contraction signal when the polypropylene surface is coated with Triton X-100. Furthermore, this signal is much stronger than that previously observed for ADP activated samples in polypropylene tubes without coating.

[3] = T2MR fibrinogen assay with thrombin; design: species or system human; conditions: 45 μM MnSO4 in buffer diluent
Description: T2MR measures the formation of fibrin directly in the whole blood or plasma in the presence of thrombin. The solution of thrombin (STAGO, 5 U/mL) is added to the diluted solution of plasma (or blood) and the change in T2 signal is monitored. The sample begins to clot immediately upon addition of thrombin, resulting in a rapid decrease in T2 signal. In order to achieve better sample relaxation rate and reduce noise in the measured T2 signal the paramagnetic material (MnSO4) is added to the buffer diluent (STAGO, Owren-Koller buffer), with a final concentration of the MnSO4 in diluent of 45 μM. […] The buffer diluent containing paramagnetic material is used to prepare thrombin 5 U/mL stock by diluting 80 U/mL stock and to prepare standard dilutions for the calibration curve.

[4] = PT clotting time, T2MR and Stago; design: species or system human; conditions: spiked 10 ng/mL-1000 ng/mL
Description: Clotting times were measured by […] by first establishing a time zero T2 value (i.e., by taking the first point or some sort of average or linear fit to the first 5-10 data points) of the T2 time curve, and second identifying the time point (i.e., the clotting time or PT time) in the T2 time curve when the T2 value had changed by a predetermined amount (e.g. 5% or 10%) indicative of clotting in the sample. From the observed PT clotting time the INR was calculated using the methods described in Jan et al., Clin. Chem. 35:840 (1989). […] 18 normal samples and 24 abnormal samples were tested against a reference range established by 20 normal samples. Abnormal samples with prolonged PT times were obtained by spiking increasing levels of the anti-Xa inhibitor Rivaroxiban (10 ng/mL-1000 ng/mL). Correlation with TEG clotting time was obtained across >40 normal patient samples with non-optimized R2 correlation of >0.8. (see FIG. 14B). PT time correlations with Stago for plasma (see FIG. 14D) and with Hemochron for whole blood (see FIG. 14C) were also found.

platelet activity = assay: T2MR platelet inhibition, heparin blood activated by AA+RF; assay type: cell-based, human; conditions: 600 μM aspirin ex vivo
Description: In this experiment platelet inhibition was monitored by the addition of 600 μM aspirin ex vivo to heparin blood prior to activation by AA+RF (samples were tested with and without aspirin). […] These studies confirmed that the clot signature was dependent on platelet activity.

platelets in whole blood [5] = conditions: 5-20 μM epinephrine
Description: A titration of epinephrine ranging from 5-20 μM was added to the activation cocktail (comprised of reptilase, factor XIIIa, calcium, and platelet activator). 4 μL of the activation cocktail was added to 36 μL of whole blood in a coated tube. The tube containing the reaction was placed in a T2MR reader. T2MR relaxation curve data was processed with an Inverse Laplace transformation algorithm.

platelets = assay: Tube-dried collagen as platelet activator, T2MR; assay type: cell-based; conditions: 2 micrograms dried in microtube; whole blood and RBC-depleted plasma
Description: Collagen is a potent activator of platelets, and recognition of exposed collagen from the cellular matrix is one of the in vivo signals for platelet activation. […] To prepare the tube, 2 micrograms (2 μL of a 1 mg/ml solution) was deposited in the bottom of a microtube and the tube placed at 37° C. for 2-5 hours. A tube prepared in this way can be kept at room temperature or at 37° C. for several weeks. To measure a T2MR signature 34 μL of citrated whole blood (or RBC-depleted blood) were added to the tube at 37 degrees; after 1 minute 2 μL of 0.2M CaCl2 was added and the sample placed in the magnet for relaxation measurements and analysis.

Q: For `CCCCC/C=C\C/C=C\C/C=C\C/C=C\CCCC(=O)O` [AA, arachidonic acid], which “concentration that typically causes clot retraction” value (platelets in whole blood [1]) is on record?
A: The value was 0.5 to 1 mM.

Q: What about the platelet-induced clot contraction (platelets in whole blood [1]; typical level of AA) of the same molecule?
A: Its platelet-induced clot contraction is “strong platelet-induced clot contraction”.

Q: Which “clot retraction after gel phase” value (platelets in whole blood [1]; ADP activation) does the source give for `Nc1ncnc2c1ncn2[C@@H]1O[C@H](COP(=O)(O)OP(=O)(O)O)[C@@H](O)[C@H]1O` [ADP, adenosine diphosphate] here?
A: Its value is “retraction does not occur”.

Q: And the platelet-induced clot contraction (platelets in whole blood [1]; ten-fold excess (over standard levels) of ADP)?
A: The platelet-induced clot contraction was “weak and irreproducible platelet-induced clot contraction”.

Q: What about the “clot formation T2MR signal” value ([2]; 2.5 mM ADP) of the same molecule?
A: Its value is “partial clot formation is observed”.

Q: And the “clot formation T2MR signal” value ([2]; 0.5 and 1 mM ADP)?
A: Its value is “no clot formation signal is observed”.

Q: And the “clot formation T2MR signal” value ([2]; 5, 10, 20 mM ADP)?
A: The value was “complete clot formation is observed”.

Q: With `O=S(=O)([O-])[O-].[Mn+2]` [MnSO4] as the molecule, how does the “effect on the clotting process” value [3] read?
A: The value was “no significant effect”.

Q: For `O=C(NC[C@H]1CN(c2ccc(N3CCOCC3=O)cc2)C(=O)O1)c1ccc(Cl)s1` [Rivaroxiban], which PT times [4] is on record?
A: The PT times was “prolonged”.

Q: With `CC(=O)Oc1ccccc1C(=O)O` [aspirin, acetylsalicylic acid] as the molecule, how does the “clot-associated T2 signal” value (platelet activity) read?
A: Its value is “dramatically diminished or absent”.

Q: With `CNC[C@H](O)c1ccc(O)c(O)c1` [epinephrine] as the molecule, how does the “sample response (clot contraction)” value (platelets in whole blood [5]) read?
A: The value was “responsive”.

Q: What about the “timing of clot contraction” value (platelets in whole blood [5]) of the same molecule?
A: Its value is “dose dependent”.

Q: With collagen as the molecule, how does the T2MR clot peak (platelets) read?
A: Its T2MR clot peak is “effectively generate a T2MR clot peak”.
